Source: US9636409B2, “Enzyme and receptor modulation using covalent conjugates of alpha,alpha-disubstituted glycine esters” (GlaxoSmithKline Intellectual Property Development Limited, priority 2008, dated 2017)

Legend:
[1] = target: T1, p38 MAP Kinase α (Homo sapiens, UniProt Q16539); test: p38 MAP Kinase enzyme assay; type: biochemical; details: Table 1 (biology); compound as such, Ester for Example 1; read-out: Inhibition of P38 (IC50 nM)
T1 construct: purchased Upstate (Dundee UK)
Description: p38 MAP Kinase Enzyme Assay
The ability of compounds to inhibit p38 MAPα Kinase activity was measured in an assay performed by Upstate (Dundee UK). In a final reaction volume of 25 μL, p38 MAP Kinase α (5-10 mU) is incubated with 25 mM Tris pH 7.5, 0.02 mM EGTA, 0.33 mg/mL myelin basic protein, 10 mM MgAcetate and [γ-^33P-ATP](specific activity approx. 500 cpm/pmol, concentration as required). The reaction is initiated by the addition of the MgATP mix. After incubation for 40 minutes at room temperature, the reaction is stopped by the addition of 5 μL of a 3% phosphoric acid solution. 10 μL of the reaction is then spotted onto a P30 filtermat and washed three times for 5 minutes in 75 mM phosphoric acid and once in methanol prior to drying and scintillation counting.
Duplicate data points are generated from a 1/3 log dilution series of a stock solution in DMSO. Nine dilutions steps are made from a top concentration of […], and a ‘no compound’ blank is included. The standard radiometric filter-binding assay is performed at an ATP concentration at, or close to, the Km. Data from scintillation counts are collected and subjected to free-fit analysis by Prism software. From the curve generated, the concentration giving 50% inhibition is determined and reported.

[2] = test system: phosphorylation of MAPKAP-2 in HUT 78 cells; test: p38 MAP Kinase cellular assay: inhibition of phosphorylation of MAPKAP2 in HUT 78 cells; type: cell-based; details: Table 2
Description: p38 MAP Kinase Cellular Assay: Inhibition of Phosphorylation of MAPKAP2
U937 or HUT78 cells were plated in RPMI 1640, and were incubated at 37° C., 5% CO2 for 18 hours. 10 mM stocks of compounds were diluted media/0.1% DMSO to give a log or semi-log dilution series. The wells for ‘no treatment’ and ‘anisomycin’ were treated with 0.1% DMSO only. The cells were incubated at 37° C., 5% CO2 for a further 4 hours. Anisomycin was added to all wells except ‘no treatment’ at a final concentration of 10 μM. The cells were incubated at 37° C., 5% CO2 for 30 minutes before harvest. Plates were stood on ice whilst harvesting, and all following steps were carried out at 4° C. The cells were pelleted at 1000 rpm for 10 minutes at 4° C., the media aspirated, and the pellet washed with cold PBS. The pellets were lysed in 120 μl of SDS lysis buffer (62.5 mM Tris, pH 6.8, 2% SDS, 10% glycerol, 50 mM DTT, with protease inhibitors and phosphatase inhibitors added according to the manufacturers' recommendations). After 30 minutes on ice, the samples were sonicated for 5 seconds before centrifugation at 13,000 rpm 4° C. for 10 minutes to remove cell debris. 10 μl of the resulting gel samples were loaded per lane on NOVEX 4-12% Bis-Tris MOPS gels. Membranes from western transfer of gels were blotted with anti-phospho MAPKAP2, anti-phospho HSP27 and anti GAPDH according to the manufacturers' Instructions. Signal was visualised using HRP-Hnked anti-rabbit or anti-mouse antibodies, ECL reagent and ECL film. IC50 values for the various compounds were visualised from the resulting photographic images, using both band-shift and signal intensity.

[3] = test system: cell lysate from U937 cells; test: Broken cell carboxylesterase assay (U937 cell extract); type: in vitro ADME; details: ester 2.5 μM
Description: Broken Cell Carboxylesterase Assay
Any given compound of the present invention wherein ester conjugate according to the invention may be tested to determine whether it meets the requirement that it be hydrolysed by intracellular esterases, by testing in the following assay.
Preparation of Cell Extract
U937 or HCT 116 tumour cells (˜10^9) were washed in 4 volumes of Dulbeccos PBS (˜1 liter) and pelleted at 525 g for 10 min at 4° C. This was repeated twice and the final cell pellet was re-suspended in 35 mL of cold homogenising buffer (Trizma 10 mM, NaCl 130 mM, CaCl2 0.5 mM pH 7.0 at 25° C.). Homogenates were prepared by nitrogen cavitation (700 psi for 50 min at 4° C.). The homogenate was kept on ice and supplemented with a cocktail of inhibitors at final concentrations of: • Leupeptin 1 μM • Aprotinin 0.1 μM • E64 8 μM • Pepstatin 1.5 μM • Bestatin 162 μM • Chymostatin 33 μM
After clarification of the cell homogenate by centrifugation at 525 g for 10 min, the resulting supernatant was used as a source of esterase activity and was stored at −80° C. until required. […]
Hydrolysis of esters to the corresponding carboxylic acids can be measured using the cell extract, prepared as above. […] After centrifugation at 12000 g for 5 min, samples were analysed for the ester and its corresponding carboxylic acid at room temperature by LCMS (Sciex API 3000, HP1100 binary pump, CTC PAL). […]

T1 sequence (Q16539 whole entry): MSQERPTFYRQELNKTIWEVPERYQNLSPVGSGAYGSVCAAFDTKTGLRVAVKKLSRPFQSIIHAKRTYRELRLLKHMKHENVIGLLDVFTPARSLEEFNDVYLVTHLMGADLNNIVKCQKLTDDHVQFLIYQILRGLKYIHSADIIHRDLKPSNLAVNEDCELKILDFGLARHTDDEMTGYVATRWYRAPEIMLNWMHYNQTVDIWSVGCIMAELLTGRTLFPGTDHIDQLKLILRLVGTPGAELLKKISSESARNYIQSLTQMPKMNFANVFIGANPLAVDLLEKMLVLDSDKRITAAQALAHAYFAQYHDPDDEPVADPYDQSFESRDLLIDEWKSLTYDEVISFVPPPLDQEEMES

IC50 [1]: 50 nM
IC50 ([2]; Homo sapiens, HuT78, HUT 78 non-monocyte cell line): 1000 nM
Cleavage by cell lysate from U937 cells [3]: 165 pg/mL/min
Compound: CC(C)(NCCc1ccc(-n2c(N)c(C(=O)c3ccc(F)cc3F)ccc2=O)cc1)C(=O)OC1CCCC1 [Example 1]
Ratio IC50s in HUT 78 to U937 cells ([2]; MAPKAP-2 phosphorylation IC50s): 100
